Measured values as given in US20200352934A1, “LOW-TEMPERATURE STABLE OPIOID ANTAGONIST SOLUTIONS” (priority 2017, published 2020).
Where two headings read alike, the source gives them in different places.

Details: storage at 4° C.
[1] = per 100 mL: EDTA-Na2 0 mg, PG 5% w/v
[2] = per 100 mL: EDTA-Na2 0 mg, PG 10% w/v
[3] = per 100 mL: EDTA-Na2 0 mg, PG 20% w/v
[4] = per 100 mL: EDTA-Na2 100 mg, PG 5% w/v
[5] = per 100 mL: EDTA-Na2 100 mg, PG 10% w/v
[6] = per 100 mL: EDTA-Na2 100 mg, PG 20% w/v

C=CCN1CC[C@]23c4c5ccc(O)c4O[C@H]2C(=O)CC[C@@]3(O)[C@H]1C5 [Naloxone]
Observed naloxone precipitation 24 days [1]: No
Observed naloxone precipitation 24 days [2]: No
Observed naloxone precipitation 24 days [3]: No
Observed naloxone precipitation 24 days [4]: No
Observed naloxone precipitation 24 days [5]: No
Observed naloxone precipitation 24 days [6]: No and Slight
Observed naloxone precipitation 35 days [1]: No
Observed naloxone precipitation 35 days [2]: No
Observed naloxone precipitation 35 days [3]: No
Observed naloxone precipitation 35 days [4]: No
Observed naloxone precipitation 35 days [5]: No
Observed naloxone precipitation 35 days [6]: No and Yes
Observed naloxone precipitation 53 days [1]: No
Observed naloxone precipitation 53 days [2]: No
Observed naloxone precipitation 53 days [3]: No
Observed naloxone precipitation 53 days [4]: No
Observed naloxone precipitation 53 days [5]: No and Slight
Observed naloxone precipitation 53 days [6]: No and Yes
